Data as given in article PMC10042146, “SARS-CoV-2 M^pro Protease Variants of Concern Display Altered Viral Substrate and Cell Host Target Galectin-8 Processing but Retain Sensitivity toward Antivirals” (ACS Central Science, 2023).
pIC50: −log10 of the molar value.

Molecular target: T1, SARS-CoV-2 M^pro (wild type) (Severe acute respiratory syndrome coronavirus 2, UniProt P0DTD1)
T1 construct: gene rep; mature nsp5 cut from replicase polyprotein 1ab (also pp1a); homodimer; purification details only in supplement
Format: biochemical

With AVI-8053 the pIC50 was 7.72.
